{"source": "paper PMC10582335", "about": "(Frontiers in Pharmacology, 2023)", "key": {"Cyp3a1 mRNA (CYP3A4)": {"system": "Cyp3a1 mRNA (CYP3A4)", "assay": "qRT-PCR of mRNA expression in rat tissues after multiple-dose almonertinib", "type": "in vivo", "conditions": "rats given almonertinib for nine consecutive days, n = 3", "method": "Sixty healthy rats were randomly divided into ten groups (n = 6). […] Blood samples were centrifuged at 3,500 g for 10 min, and then the supernatant was gathered and stored in a −80°C refrigerator. After, rat intestine, kidney and liver tissues were harvested for molecular analysis on the ninth or fifth day after treatment with the corresponding drugs for each group. The tissues were placed immediately at −80°C.\nqRT-PCR analysis was used to determine mRNA levels of Abcb1a, Abcg2 and Cyp3a1 in the liver and intestines, and Abcb1a and Abcg2 in the kidney of rats. Total RNA was isolated from frozen liver, intestine and kidney samples using TRNzol Universal according to the manufacturer’s instructions. A Bio Tek Epoch (Bio Tek Instruments, Inc., Winooski, VT, United States) was employed to quantify the purity and concentration of the total RNA based on the ratio of the absorbance between 260 and 280 nm. RNA samples of 1 µg were transformed to complementary DNA (cDNA) using the FastKing RT Kit. The real-time PCR assays were accomplished using a two-step amplification method based on the recommendations in a SLAN-96S Real-Time PCR system (Shanghai Hongshi Medical Technology Co., Ltd. Shanghai, China). […] was used as an internal control, and the PCR cycling criteria were as follows: 95°C for 15 min, then 40 cycles of 95°C for 10, and 60°C for 32 s."}, "[1]": {"assay": "Pharmacokinetics of almonertinib in rats, alone and after multiple doses of rivaroxaban or apixaban", "type": "in vivo, Sprague-Dawley (SD) rats", "conditions": "for AUC(0-inf) / AUC(0-t) / Cmax / Tmax / CL/F / MRT last / MRT inf / Vd/F / half-life: male, Sprague-Dawley, rat, plasma, po, 15 mg/kg, mean ± SD, n = 6; for CL/F: read-out: CLz/F (converted); for MRT last: read-out: MRT0-t; for MRT inf: read-out: MRT0-∞; for Vd/F: read-out: Vz/F; for half-life: read-out: t1/2z (converted)", "method": "Chromatographic separation was performed using an XSelect HSS T3 column (2.1 mm × 100 mm, 2.5 µm, Waters, Milford, MA, United States) at 40°C by gradient elution. The mobile phase consisted of water (A) and acetonitrile (0.1% formic acid, B). […] The flow rate was 0.35 mL min^−1, and the injection volume was 6 µL. The positive ion mode with multiple reaction detection was used. […] The mass spectrometer conditions, including delustering potential (DP) and collision energy (CE) of the compounds, are shown in Table 1. […] Protein precipitation was used to process the plasma samples. 5 μL of mixed IS working solution, 50 µL of the plasma samples, and 150 µL of acetonitrile were vortex-mixed for 1.0 min. […] The supernatant was transferred to a 96-well plate for sample analysis. […] (Beijing, China). […] The study was approved and supervised by the Animal Ethics Committee of Hebei General Hospital (Shijiazhuang, China) (No. 2023024). Adaptive feeding (sufficient food and water) was performed for 1 week before the experiment. […] All rats were fasted for 12 h before starting the experiments while still given water. Sixty healthy rats were randomly divided into ten groups (n = 6). […] Blood samples were centrifuged at 3,500 g for 10 min, and then the supernatant was gathered and stored in a −80°C refrigerator. After, rat intestine, kidney and liver tissues were harvested for molecular analysis on the ninth or fifth day after treatment with the corresponding drugs for each group. The tissues were placed immediately at −80°C. DAS 2.1.1 Software (Mathematical Pharmacology Professional Committee of China, Shanghai, China) was applied to calculate pharmacokinetic parameters using non-compartmental analysis. SPSS 25.0 statistical software (SPSS Inc., Chicago, IL, United States) was applied to statistically analyze the main pharmacokinetic parameters, including AUC, Cmax, Tmax, t1/2, CLz/F, Vz/F, and MRT."}, "[2]": {"conditions": "almonertinib 15 mg/kg after multiple doses of rivaroxaban (group 9) compared with group 3, rats"}, "[3]": {"conditions": "rats, oral almonertinib 15 mg/kg after apixaban 0.5 mg/kg for five days (group 10)"}, "[4]": {"conditions": "rats, oral almonertinib 15 mg/kg after rivaroxaban 2 mg/kg for five days (group 9)"}, "[5]": {"conditions": "rats, oral almonertinib 15 mg/kg alone (group 3, control solvent of rivaroxaban)"}, "[6]": {"conditions": "rats, oral almonertinib 15 mg/kg alone (group 4, control solvent of apixaban)"}}, "note": "Read-outs that look alike come from different tables or passages of the source.", "data": [{"compound": "C=CC(=O)Nc1cc(Nc2nccc(-c3cn(C4CC4)c4ccccc34)n2)c(OC)cc1N(C)CCN(C)C", "note": "[almonertinib, Almonertinib]", "values": [{"measurement": "inhibition of mRNA expression of Cyp3a1", "setting": "Cyp3a1 mRNA (CYP3A4); intestine", "result": 96.9, "unit": "%"}, {"measurement": "inhibition of mRNA expression of Cyp3a1", "setting": "Cyp3a1 mRNA (CYP3A4); liver", "result": 45.5, "unit": "%"}, {"measurement": "all the pharmacokinetic parameters of almonertinib, comparison with almonertinib alone", "setting": "[1]; almonertinib 15 mg/kg after multiple doses of apixaban 0.5 mg/kg (group 10) compared with group 4, rats", "result": "no statistically significant difference"}, {"measurement": "increase of Cmax of almonertinib", "setting": "[1]; almonertinib 15 mg/kg after multiple doses of rivaroxaban (group 9) compared with almonertinib alone (group 3), rats", "result": 1.26, "unit": "fold"}, {"measurement": "decrease of CLz/F of almonertinib", "setting": "[1]; [2]", "result": 81.1, "unit": "%"}, {"measurement": "increase of AUC0-t of almonertinib", "setting": "[1]; [2]", "result": 1.17, "unit": "fold"}, {"measurement": "increase of AUC0-∞ of almonertinib", "setting": "[1]; [2]", "result": 1.17, "unit": "fold"}, {"measurement": "AUC(0-inf)", "setting": "[1]; [3]", "result": "293 ± 48.9", "unit": "ng·h/mL"}, {"measurement": "AUC(0-t)", "setting": "[1]; [3]", "result": "267 ± 51.9", "unit": "ng·h/mL"}, {"measurement": "Cmax", "setting": "[1]; [3]", "result": "42.1 ± 5.99", "unit": "ng/mL"}, {"measurement": "Tmax", "setting": "[1]; [3]", "result": "2.5 ± 1.18", "unit": "h"}, {"measurement": "CL/F", "setting": "[1]; [3]", "result": 877, "unit": "mL/min/kg"}, {"measurement": "MRT last", "setting": "[1]; [3]", "result": "6.49 ± 0.35", "unit": "h"}, {"measurement": "MRT inf", "setting": "[1]; [3]", "result": "9.31 ± 2.59", "unit": "h"}, {"measurement": "Vd/F", "setting": "[1]; [3]", "result": "522 ± 318", "unit": "L/kg"}, {"measurement": "half-life", "setting": "[1]; [3]", "result": "6.79 ± 4.15", "unit": "h"}, {"measurement": "AUC(0-inf)", "setting": "[1]; [4]", "result": "299 ± 150", "unit": "ng·h/mL"}, {"measurement": "AUC(0-t)", "setting": "[1]; [4]", "result": "299 ± 150", "unit": "ng·h/mL"}, {"measurement": "Cmax", "setting": "[1]; [4]", "result": "51.4 ± 24.9", "unit": "ng/mL"}, {"measurement": "Tmax", "setting": "[1]; [4]", "result": "3.17 ± 0.41", "unit": "h"}, {"measurement": "CL/F", "setting": "[1]; [4]", "result": 1040, "unit": "mL/min/kg"}, {"measurement": "MRT last", "setting": "[1]; [4]", "result": "5.15 ± 0.66", "unit": "h"}, {"measurement": "MRT inf", "setting": "[1]; [4]", "result": "5.15 ± 0.66", "unit": "h"}, {"measurement": "Vd/F", "setting": "[1]; [4]", "result": "244 ± 168", "unit": "L/kg"}, {"measurement": "half-life", "setting": "[1]; [4]", "result": "2.7 ± 0.78", "unit": "h"}, {"measurement": "AUC(0-inf)", "setting": "[1]; [5]", "result": "138 ± 31.3", "unit": "ng·h/mL"}, {"measurement": "AUC(0-t)", "setting": "[1]; [5]", "result": "138 ± 31.3", "unit": "ng·h/mL"}, {"measurement": "Cmax", "setting": "[1]; [5]", "result": "22.8 ± 4.76", "unit": "ng/mL"}, {"measurement": "Tmax", "setting": "[1]; [5]", "result": "2.17 ± 1.13", "unit": "h"}, {"measurement": "CL/F", "setting": "[1]; [5]", "result": 1880, "unit": "mL/min/kg"}, {"measurement": "MRT last", "setting": "[1]; [5]", "result": "5.03 ± 0.73", "unit": "h"}, {"measurement": "MRT inf", "setting": "[1]; [5]", "result": "5.03 ± 0.74", "unit": "h"}, {"measurement": "Vd/F", "setting": "[1]; [5]", "result": "331 ± 125", "unit": "L/kg"}, {"measurement": "half-life", "setting": "[1]; [5]", "result": "2.18 ± 1.05", "unit": "h"}, {"measurement": "AUC(0-inf)", "setting": "[1]; [6]", "result": "299 ± 46.8", "unit": "ng·h/mL"}, {"measurement": "AUC(0-t)", "setting": "[1]; [6]", "result": "281 ± 43.3", "unit": "ng·h/mL"}, {"measurement": "Cmax", "setting": "[1]; [6]", "result": "39.8 ± 8.12", "unit": "ng/mL"}, {"measurement": "Tmax", "setting": "[1]; [6]", "result": "1.83 ± 1.03", "unit": "h"}, {"measurement": "CL/F", "setting": "[1]; [6]", "result": 855, "unit": "mL/min/kg"}, {"measurement": "MRT last", "setting": "[1]; [6]", "result": "6.53 ± 0.97", "unit": "h"}, {"measurement": "MRT inf", "setting": "[1]; [6]", "result": "8.35 ± 3.38", "unit": "h"}, {"measurement": "Vd/F", "setting": "[1]; [6]", "result": "383 ± 316", "unit": "L/kg"}, {"measurement": "half-life", "setting": "[1]; [6]", "result": "5.4 ± 4.96", "unit": "h"}]}]}
